We go through 19 molecules from patent US20260015358A1, “BICYCLIC DERIVATIVES, COMPOSITIONS AND USES THEREOF” (Danatlas Pharmaceuticals Co., Ltd., priority 2023, published 2026).

Assay [1] addresses T1, WRN [UniPro: Q14191 (WRN_HUMAN), N500-C946] (Homo sapiens (Human), UniProt Q14191). Nature of the assay: WRN unwinding assay (FORKF DNA, fluorescence). As to conditions: Table 14. The class given is biochemical.
Assay [2] has as its target T1, WRN [UniPro: Q14191 (WRN_HUMAN), N500-C946]. Nature of the assay: WRN ATPase assay (ADP-Glo). As to conditions: WRN enzymatic activity assay. It counts as biochemical.

T1 sequence (Q14191 500-946): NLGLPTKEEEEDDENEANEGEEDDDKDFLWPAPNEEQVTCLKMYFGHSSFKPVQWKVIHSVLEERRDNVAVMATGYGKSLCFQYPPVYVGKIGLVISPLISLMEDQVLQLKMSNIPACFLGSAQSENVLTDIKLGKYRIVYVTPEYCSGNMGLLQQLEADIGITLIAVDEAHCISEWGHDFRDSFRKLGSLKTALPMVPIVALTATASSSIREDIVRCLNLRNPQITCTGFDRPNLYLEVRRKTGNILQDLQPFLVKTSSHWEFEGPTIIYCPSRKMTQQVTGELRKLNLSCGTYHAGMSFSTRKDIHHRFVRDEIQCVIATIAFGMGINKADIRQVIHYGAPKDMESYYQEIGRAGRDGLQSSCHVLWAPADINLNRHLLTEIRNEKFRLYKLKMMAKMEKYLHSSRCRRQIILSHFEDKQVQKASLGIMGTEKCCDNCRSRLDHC

Turning to `CCc1c(N2CCN(C(=O)CNC(=O)c3ccccc3)CC2)c(=O)n2nc(C(C)(C)C)nc2n1CC(=O)Nc1ccc(C(F)(F)F)cc1Cl` [Example 237, N-(2-(4-(2-(Tert-butyl)-4-(2-((2-chloro-4-(trifluoromethyl)phenyl)amino)-2-oxoethyl)-5-ethyl-7-oxo-4,7-dihydro-[1,2,4]triazolo[1,5-a]pyrimidin-6-yl)piperazin-1-yl)-2-oxoethyl)benzamide], the IC50 in assay [1] and in assay [2] was 100 to 1000 nM each time.
Turning to `CCc1c(N2CCN(C(=O)CNC(=O)c3ccccc3)CC2)c(=O)n2nc(C3CC3)nc2n1CC(=O)Nc1ccc(C(F)(F)F)cc1Cl` [Example 238, N-(2-(4-(4-(2-((2-Chloro-4-(trifluoromethyl)phenyl)amino)-2-oxoethyl)-2-cyclopropyl-5-ethyl-7-oxo-4,7-dihydro-[1,2,4]triazolo[1,5-a]pyrimidin-6-yl)piperazin-1-yl)-2-oxoethyl)benzamide], the IC50 in assay [1] and in assay [2] was 100 to 1000 nM in each case.
For the molecule `CCOc1nc2n(CC(=O)Nc3ccc(C(F)(F)F)cc3Cl)c(CC)c(N3CCN(C(=O)CNC(=O)c4ccccc4F)CC3)c(=O)n2n1` [Example 239, N-(2-(4-(4-(2-((2-Chloro-4-(trifluoromethyl)phenyl)amino)-2-oxoethyl)-2-ethoxy-5-ethyl-7-oxo-4,7-dihydro-[1,2,4]triazolo[1,5-a]pyrimidin-6-yl)piperazin-1-yl)-2-oxoethyl)-2-fluorobenzamide], the IC50 in assay [1] and in assay [2] was 100 to 1000 nM in each case.
With `CCc1c(N2CCN(C(=O)CNC(=O)c3ccccc3F)CC2)c(=O)n2nc(SC)nc2n1CC(=O)Nc1ccc(C(F)(F)F)cc1Cl` [Example 241, N-(2-(4-(4-(2-((2-Chloro-4-(trifluoromethyl)phenyl)amino)-2-oxoethyl)-5-ethyl-2-(methylthio)-7-oxo-4,7-dihydro-[1,2,4]triazolo[1,5-a]pyrimidin-6-yl)piperazin-1-yl)-2-oxoethyl)-2-fluorobenzamide], the IC50 in assay [1] and in assay [2] was 100 to 1000 nM in each case.
Regarding `CCc1c(N2CCN(C(=O)CNC(=O)c3ccccc3F)CC2)c(=O)n2nc(N3CC(F)(F)C3)nc2n1CC(=O)Nc1ccc(C(F)(F)F)cc1Cl` [Example 244, N-(2-(4-(4-(2-((2-Chloro-4-(trifluoromethyl)phenyl)amino)-2-oxoethyl)-2-(3,3-difluoroazetidin-1-yl)-5-ethyl-7-oxo-4,7-dihydro-[1,2,4]triazolo[1,5-a]pyrimidin-6-yl)piperazin-1-yl)-2-oxoethyl)-2-fluorobenzamide], the results for the IC50 in assay [1] and in assay [2] were 100 to 1000 nM and under 100 nM, respectively.
With `CCc1c(N2CCN(C(=O)CNC(=O)c3ccccc3F)CC2)c(=O)n2nc(N3Cc4ccncc4C3)nc2n1CC(=O)Nc1ccc(C(F)(F)F)cc1Cl` [Example 246, N-(2-(4-(4-(2-((2-Chloro-4-(trifluoromethyl)phenyl)amino)-2-oxoethyl)-2-(1,3-dihydro-2H-pyrrolo[3,4-c]pyridin-2-yl)-5-ethyl-7-oxo-4,7-dihydro-[1,2,4]triazolo[1,5-a]pyrimidin-6-yl)piperazin-1-yl)-2-oxoethyl)-2-fluorobenzamide], the values for the IC50 in assay [1] and in assay [2] were under 100 nM and 100 to 1000 nM, respectively.
On the same counts, the results for `CCc1c(N2CCN(C(=O)CNC(=O)c3nccs3)CC2)c(=O)n2nc(N3CCOCC3)nc2n1CC(=O)Nc1ccc(C(F)(F)F)cc1Cl` [Example 248, N-(2-(4-(4-(2-((2-Chloro-4-(trifluoromethyl)phenyl)amino)-2-oxoethyl)-5-ethyl-2-morpholino-7-oxo-4,7-dihydro-[1,2,4]triazolo[1,5-a]pyrimidin-6-yl)piperazin-1-yl)-2-oxoethyl)thiazole-2-carboxamide] are under 100 nM and under 100 nM.
On the same counts, the results for `CCc1c(N2CCN(C(=O)CNC(=O)c3ncco3)CC2)c(=O)n2nc(N3CCOCC3)nc2n1CC(=O)Nc1ccc(C(F)(F)F)cc1Cl` [Example 249, N-(2-(4-(4-(2-((2-Chloro-4-(trifluoromethyl)phenyl)amino)-2-oxoethyl)-5-ethyl-2-morpholino-7-oxo-4,7-dihydro-[1,2,4]triazolo[1,5-a]pyrimidin-6-yl)piperazin-1-yl)-2-oxoethyl)oxazole-2-carboxamide] are under 100 nM and under 100 nM.
In the same order, the values of `CCc1c(N2CCN(C(=O)CNC(=O)c3cc(NC)ccc3F)CC2)c(=O)n2nc(N3CCOCC3)nc2n1CC(=O)Nc1ccc(C(F)(F)F)cc1Cl` [Example 250] are under 100 nM and under 100 nM.
In the case of `CCc1c(N2CCN(C(=O)CNC(=O)c3ccc(F)c(NC)c3)CC2)c(=O)n2nc(N3CCOCC3)nc2n1CC(=O)Nc1ccc(C(F)(F)F)cc1Cl` [Example 251, N-(2-(4-(4-(2-((2-Chloro-4-(trifluoromethyl)phenyl)amino)-2-oxoethyl)-5-ethyl-2-morpholino-7-oxo-4,7-dihydro-[1,2,4]triazolo[1,5-a]pyrimidin-6-yl)piperazin-1-yl)-2-oxoethyl)-4-fluoro-3-(methylamino)benzamide], the IC50 in assay [1] and in assay [2] was under 100 nM in each case.
On to `CCc1c(N2CCN(C(=O)CNC(=O)c3cccc(O)c3F)CC2)c(=O)n2nc(N3CCOCC3)nc2n1CC(=O)Nc1ccc(C(F)(F)F)cc1F` [Example 252, N-(2-(4-(5-Ethyl-4-(2-((2-fluoro-4-(trifluoromethyl)phenyl)amino)-2-oxoethyl)-2-morpholino-7-oxo-4,7-dihydro-[1,2,4]triazolo[1,5-a]pyrimidin-6-yl)piperazin-1-yl)-2-oxoethyl)-2-fluoro-3-hydroxybenzamide], for which the IC50 in assay [1] and in assay [2] was under 100 nM in each case.
In the case of `CCc1c(N2CCN(C(=O)CNC(=O)c3cc(F)cc(NC)c3)CC2)c(=O)n2nc(N3CCOCC3)nc2n1CC(=O)Nc1ccc(C(F)(F)F)cc1F` [Example 253, N-(2-(4-(5-Ethyl-4-(2-((2-fluoro-4-(trifluoromethyl)phenyl)amino)-2-oxoethyl)-2-morpholino-7-oxo-4,7-dihydro-[1,2,4]triazolo[1,5-a]pyrimidin-6-yl)piperazin-1-yl)-2-oxoethyl)-3-fluoro-5-(methylamino)benzamide], the IC50 in assay [1] and in assay [2] was under 100 nM throughout.
As to `CCc1c(N2CCN(C(=O)CNC(=O)c3ccccc3F)CC2)c(=O)n2nc(N3CCOCC3)nc2n1CC(=O)Nc1ccc(C(F)(F)F)cc1F` [Example 254, N-(2-(4-(5-Ethyl-4-(2-((2-fluoro-4-(trifluoromethyl)phenyl)amino)-2-oxoethyl)-2-morpholino-7-oxo-4,7-dihydro-[1,2,4]triazolo[1,5-a]pyrimidin-6-yl)piperazin-1-yl)-2-oxoethyl)-2-fluorobenzamide], the IC50 in assay [1] and in assay [2] was under 100 nM in each case.
For `CCc1c(N2CCN(C(=O)CNC(=O)c3cccc(F)c3N)CC2)c(=O)n2nc(N3CCOCC3)nc2n1CC(=O)Nc1ccc(C(F)(F)F)cc1F` [Example 255, 2-Amino-N-(2-(4-(5-Ethyl-4-(2-((2-fluoro-4-(trifluoromethyl)phenyl)amino)-2-oxoethyl)-2-morpholino-7-oxo-4,7-dihydro-[1,2,4]triazolo[1,5-a]pyrimidin-6-yl)piperazin-1-yl)-2-oxoethyl)-3-fluorobenzamide], the IC50 in assay [1] and in assay [2] was under 100 nM each time.
`CCc1c(N2CCN(C(=O)CNC(=O)c3ccc(F)c(NC)c3)CC2)c(=O)n2nc(N3CCOCC3)nc2n1CC(=O)Nc1ccc(C(F)(F)F)cc1F` [Example 256, N-(2-(4-(5-Ethyl-4-(2-((2-fluoro-4-(trifluoromethyl)phenyl)amino)-2-oxoethyl)-2-morpholino-7-oxo-4,7-dihydro-[1,2,4]triazolo[1,5-a]pyrimidin-6-yl)piperazin-1-yl)-2-oxoethyl)-4-fluoro-3-(methylamino)benzamide]: the IC50 in assay [1] and in assay [2] was under 100 nM each time.
For the molecule `CCc1c(N2CCN(C(=O)CNC(=O)c3ncco3)CC2)c(=O)n2nc(N3CCCOCC3)nc2n1CC(=O)Nc1ccc(C(F)(F)F)cc1F` [Example 257, N-(2-(4-(5-Ethyl-4-(2-((2-fluoro-4-(trifluoromethyl)phenyl)amino)-2-oxoethyl)-2-(1,4-oxazepan-4-yl)-7-oxo-4,7-dihydro-[1,2,4]triazolo[1,5-a]pyrimidin-6-yl)piperazin-1-yl)-2-oxoethyl)oxazole-2-carboxamide], the IC50 in assay [1] and in assay [2] was 100 to 1000 nM each time.
For the molecule `CCc1c(N2CCN(C(=O)C(=O)Nc3nccs3)CC2)c(=O)n2nc(N3CCOCC3)nc2n1CC(=O)Nc1ccc(C(F)(F)F)cc1Cl` [Example 258, 2-(4-(4-(2-((2-Chloro-4-(trifluoromethyl)phenyl)amino)-2-oxoethyl)-5-ethyl-2-morpholino-7-oxo-4,7-dihydro-[1,2,4]triazolo[1,5-a]pyrimidin-6-yl)piperazin-1-yl)-2-oxo-N-(thiazol-2-yl)acetamide], the IC50 in assay [1] and in assay [2] was under 100 nM in each case.
As to `CCc1c(N2CCN(C(=O)C(=O)Nc3nccs3)CC2)c(=O)n2nc(N3Cc4ccncc4C3)nc2n1CC(=O)Nc1ccc(C(F)(F)F)cc1Cl` [Example 259, 2-(4-(4-(2-((2-Chloro-4-(trifluoromethyl)phenyl)amino)-2-oxoethyl)-2-(1,3-dihydro-2H-pyrrolo[3,4-c]pyridin-2-yl)-5-ethyl-7-oxo-4,7-dihydro-[1,2,4]triazolo[1,5-a]pyrimidin-6-yl)piperazin-1-yl)-2-oxo-N-(thiazol-2-yl)acetamide], the IC50 in assay [1] is under 100 nM; in assay [2], 100 to 1000 nM.
For `CCc1c(N2CCN(C(=O)C(=O)Nc3nccs3)CC2)c(=O)n2nc(N3CCOCC3)nc2n1CC(=O)Nc1ccc(C(F)(F)F)cc1F` [Example 260, 2-(4-(5-Ethyl-4-(2-((2-fluoro-4-(trifluoromethyl)phenyl)amino)-2-oxoethyl)-2-morpholino-7-oxo-4,7-dihydro-[1,2,4]triazolo[1,5-a]pyrimidin-6-yl)piperazin-1-yl)-2-oxo-N-(thiazol-2-yl)acetamide], the IC50 in assay [1] and in assay [2] was under 100 nM in each case.
